“Also recorded” adds a separate entry of the source. Like-named read-outs stand apart in the source and are kept apart here.
Assays:
[1] = cited from earlier work
[2] = Tipranavir drug-drug interaction potential (Table 1); settings: with tipranavir
[3] = Table 1; cited from earlier work
[4] = tested on: CYP3A; settings: Table 1; cited from earlier work
[5] = tested on: cytochrome P450 3A (CYP3A); settings: known property; cited from earlier work
[6] = tested on: CYP3A; settings: delavirdine 200, 300, and 400 mg TID, HIV-1 infected patients, serial erythromycin breath tests; cited from earlier work
[7] = human, in vivo
Procedure: (§1) Baseline pharmacokinetic data for each drug were obtained under pharmacokinetic steady-state conditions following 7 days of dosing. Each drug was then co-administered for 10 days, at which time the pharmacokinetics of each was re-evaluated and compared with baseline data. […] All subjects were Caucasian. […] Pharmacokinetic analyses were based on results obtained in these subjects.
Plasma samples were assayed for delavirdine concentrations using a validated, sensitive and specific isocratic high performance liquid chromatographic (HPLC) method: one for the upper concentration range, and one for the lower concentration range. […] The supernatant was mixed with buffer and directly injected. Chromatographic separation was achieved using a Brownlee cyano guard column and an analytical column, DuPont Zorbax® SB CN.
(§2) Treatment effects on pharmacokinetic parameters were assessed using Wilcoxon's Signed Rank Test.

[8] = tested on: CYP3A; settings: cited from earlier work
[9] = Example 4: pharmacokinetics of ritonavir oral solution with tipranavir SEDDS in healthy volunteers
Procedure: (§3) A pharmacokinetic profile was obtained under steady-state conditions following 7 days of dosing.
(§4) After elution from the SPE, a C-18AR analytical column was used to perform the chromatographic separation: the mobile phase was a gradient of methanol and 25 mM ammonium acetate. […] Retention times were approximately 1.5 minutes.
(§5) Pharmacokinetic parameters such as AUC, Cmax, tmax, oral clearance, and terminal half-life, were determined using standard noncompartmental techniques.

[10] = Study 2: pharmacokinetics of ritonavir co-administered with tipranavir in healthy volunteers; format: in vivo, human
Procedure: Both groups received their assigned dose of tipranavir continuously throughout the study period. […] The pharmacokinetics of tipranavir when coadministered with ritonavir were evaluated and compared with baseline data, while the ritonavir data were compared to historical data. The study was conducted in 19 healthy volunteers (16 males and 3 females) with a mean age of 30 years (range, 19-52 years), height of 177.1 cm (range, 162.6-190.5 cm), and weight of 76.7 kg (range, 57.3-95.0 kg). Eighteen subjects were Caucasian […]. […] Pharmacokinetic analyses were based on those subjects completing the baseline evaluation and at least one period of concomitant drug administration. […] Ritonavir and the internal standard (IS) were extracted from human plasma by liquid-liquid extraction with an ethyl acetate mixture.

[11] = human, in vivo; remark: listed apart in the source
Procedure: as §3, §4, §5

[12] = clinical; format: in vivo, human
Description: The drugs were then coadministered for 10 days, after which the pharmacokinetics of each were re-evaluated and compared with baseline data. […] Twelve subjects were Caucasian and two were of African descent. Ten subjects completed all aspects of the study. Pharmacokinetic analyses were based on the results obtained in these subjects. […] Ritonavir and the internal standard (IS) were extracted from human plasma by liquid-liquid extraction with an ethyl acetate mixture.

[13] = human, in vivo; remark: listed apart in the source
Procedure: A pharmacokinetic profile was obtained under steady-state conditions following 7 days of dosing. […] Forty-four subjects were Caucasian, 2 were Black, and 2 were Asian.
An aliquot (0.150 mL) was initially injected onto a short Zorbax® RX-C8 column which was connected via a column switching valve to the analytical column, Zorbax® RX-C8 column. The mobile phase was composed of acetonitrile:methanol:0.1% TFA in water, (40:35:25, v/v). Detection was by UV absorbance at 260 nm.
as §5

[14] = human, in vivo; remark: listed apart in the source
Procedure: The drugs were then coadministered for 10 days, after which the pharmacokinetics of each were re-evaluated and compared with baseline data. The study was conducted in 14 healthy volunteers (13 males and 1 female) with a mean age of 29.9 years (range, 21.3-43.9 years), height of 174.4 cm (range, 162.6-185.4 cm), and weight of 76.5 kg (range, 65.1-88.2 kg). Twelve subjects were Caucasian and two were of African descent. Ten subjects completed all aspects of the study. Pharmacokinetic analyses were based on the results obtained in these subjects. […] Detection was by UV absorbance at 260 nm.

[15] = tested on: CYP3A; experiment: Enzyme induction; settings: previous studies / in vitro and in vivo data
[16] = tested on: HIV; settings: reported for tipranavir; cited from earlier work
[17] = clinical; settings: human, in vivo, po, CLPO (oral clearance)
Procedure: as §1
Detection was by UV absorbance at 260 nm.
as §2

[18] = 200 mg BID with tipranavir 1250 mg BID vs ritonavir 500 mg BID alone

For `CC(C)(C)NC(=O)[C@@H]1C[C@@H]2CCCC[C@@H]2CN1C[C@@H](O)[C@H](Cc1ccccc1)NC(=O)[C@H](CC(N)=O)NC(=O)c1ccc2ccccc2n1` [Saquinavir], the “decrease of AUC by rifampin” value ([1]; human, in vivo) is listed as ~ 80% and the “Potential for Clinically Significant Interaction” value [2] is listed as “High (and unfavorable)”.
In the case of `Cc1cn([C@H]2C[C@H](N=[N+]=[N-])[C@@H](CO)O2)c(=O)[nH]c1=O` [AZT], the “Principal Route(s) of Elimination” value [3] is listed as “Conjugation/renal excretion” and the “Potential for Clinically Significant Interaction” value [2] is listed as “Low”.
In the case of `Cc1c(O)cccc1C(=O)N[C@@H](CSc1ccccc1)[C@H](O)CN1C[C@H]2CCCC[C@H]2C[C@H]1C(=O)NC(C)(C)C` [Nelfinavir], the “decrease of AUC by rifampin” value ([1]; human, in vivo) is listed as ~ 80%.
In the case of `O=C1Nc2ccc(Cl)cc2[C@@](C#CC2CC2)(C(F)(F)F)O1` [Efavirenz], the CYP3A induction [4] is listed as “possible CYP3A inducer”.
In the case of `CC(C)CN(C[C@@H](O)[C@H](Cc1ccccc1)NC(=O)O[C@H]1CCOC1)S(=O)(=O)c1ccc(N)cc1` [Amprenavir], the “decrease of AUC by rifampin” value ([1]; Table 1, protease inhibitors) is listed as ~ 80%, the “Principal Route(s) of Elimination” value [3] is listed as “CYP3A” and the “Potential for Clinically Significant Interaction” value [2] is listed as “High (and unfavorable)”.
For `CC(C)Nc1cccnc1N1CCN(C(=O)c2cc3cc(NS(C)(=O)=O)ccc3[nH]2)CC1` [Delavirdine], the “inhibition of CYP3A” value [5] is listed as “inhibits cytochrome P450 monooxygenase (CYP3A)”, the “inhibition of CYP3A in vivo” value [6] is listed as “rapid and significant inhibition of CYP3A” and the “delavirdine clearance with rifabutin or rifampin” value ([1]; coadministration of either rifabutin or rifampin) is listed as “marked increase in delavirdine clearance”. For the same molecule, the “CLPO (oral clearance)” value [7] was 5.18 (1.5-7.8) L/h and the “inhibition of CYP3A in vitro” value [8] was “non-competitively inhibit CYP3A”.
With `CC(C)c1nc(CN(C)C(=O)N[C@H](C(=O)N[C@@H](Cc2ccccc2)C[C@H](O)[C@H](Cc2ccccc2)NC(=O)OCc2cncs2)C(C)C)cs1` [Ritonavir, (2S,3S,5S)-5(N-(N-((N-Methyl-N-((2-isopropyl-4-thiazoly)methyl)amino)carbonyl)-L-valinyl)amino)-2-(N-((5-thiazoly)methoxycarbonyl)amino)-1,6-diphenyl-3-hydroxhexane] the “decrease of median ritonavir AUC” value [9, 18] was 12 -fold, the “decrease of median ritonavir Cmax” value [9, 18] was 10 -fold and the “decrease of median ritonavir Cmin” value [9, 18] was 54 -fold. For the same molecule, the “ritonavir concentrations in the presence of tipranavir” value ([9]; presence of tipranavir) was “greatly decreased”, the “effect of tipranavir on blood levels of ritonavir” value ([10]; Examples 1 and 2) was “lower blood levels of ritonavir” and the ritonavir concentrations ([10]; co-administration of lowest tipranavir dose tested (600 mg BID)) was “significantly and substantially declined”. The “effect on elimination half-life” value ([10]; human, in vivo) was “shortening of the elimination hall-life”, the “decrease in steady-state plasma ritonavir concentrations” value ([10]; ritonavir 500 mg BID with tipranavir 600 or 900 mg BID vs ritonavir alone) was ~4 -fold and the “effect on apparent elimination half-life” value [11] was “decreased relative to ritonavir given alone”. For the same molecule, the “effect on apparent half-life of elimination” value ([12]; human, in vivo) was “shorter apparent half-life of elimination”, the CL/F ([12]; human, in vivo, po) was 85 mL/min and the “CLPO (oral clearance)” value ([12]; human, in vivo, po) was 5.1 (3.9-7.8) L/h. The Tmax ([12]; human, in vivo, po) was 3.0 (1.0-4.0) h, the half-life ([12]; human, plasma, po, 500 mg) was 2.9 h and the “plasma ritonavir concentrations vs reported values” ([12]; ritonavir 500 mg BID alone) was “slightly higher than those reported in HIV-infected patients receiving ritonavir 600 mg doses twice daily”. For the same molecule, the “plasma ritonavir concentrations vs published values” ([12]; ritonavir 500 mg BID with tipranavir) was “lower than published values for ritonavir 300 mg doses administered twice daily to HIV-infected patients” and the “decrease in mean steady-state ritonavir concentrations” value ([12]; ritonavir 500 mg BID with tipranavir 1350 mg BID vs alone) was ~5 -fold.
For `Cc1ccnc2c1NC(=O)c1cccnc1N2C1CC1` [Nevirapine], the “decrease of nevirapine concentrations by rifampin” value ([1]; in vivo) is listed as ~ 40%.
For `Nc1ccn([C@@H]2CS[C@H](CO)O2)c(=O)n1` [3TC], the “Principal Route(s) of Elimination” value [3] is given as “Excreted unchanged in urine”.
In the case of `CC(C)(C)NC(=O)[C@@H]1CN(Cc2cccnc2)CCN1C[C@@H](O)C[C@@H](Cc1ccccc1)C(=O)N[C@H]1c2ccccc2C[C@H]1O` [Indinavir], the “decrease of AUC by rifampin” value ([1]; Table 1, protease inhibitors) is given as ~ 80%.
For `O=c1[nH]cnc2c1ncn2[C@H]1CC[C@@H](CO)O1` [ddI], the “Principal Route(s) of Elimination” value [3] is given as “Tubular secretion” and the “Potential for Clinically Significant Interaction” value [2] is given as “Low”.
For `CCC[C@@]1(CCc2ccccc2)CC(O)=C([C@H](CC)c2cccc(NS(=O)(=O)c3ccc(C(F)(F)F)cn3)c2)C(=O)O1` (relative stereo) [Tipranavir, [R-(R*,R*)]-N-[3-[1-[5,6-Dihydro-4-hydroxy-2-oxo-6-(2-phenylethyl)-6-propyl-2H-pyran-3-yl]propyl]phenyl]-5-(trifluoromethyl)-2-pyridinesulfonamide], the “CLPO (oral clearance)” value [13] was 12.7 (6.1-23.7) L/h, the “effect on apparent terminal half-life” value ([13]; po) was “not significantly affected by ritonavir” and the “effect on elimination half-life (t1/2)” value [14] was “not accompanied by a prolongation of the elimination half-life”. For the same molecule, the “enzyme induction by tipranavir” value [15] was “induces its own metabolism over a wide dosage range; also recorded: enzyme inducer”, the IC90 [16] was 1000 nM and the CL/F [17] was 468 mL/min.

— patent US6147095A (priority 1999, dated 2000)
